Source: patent US20250034139A1, “AMINE COMPOUNDS HAVING ANTI-INFLAMMATORY, ANTIFUNGAL, ANTIPARASITIC, AND ANTICANCER ACTIVITY” (PHARMA CINQ, LLC, priority 2013, published 2025)

Experiments:
[1] = tested on: PC3 human prostate cancer cells; assay: Example S: in vitro anticancer screen, PC-3 cells, Wst1; format: cell-based; conditions: Homo sapiens, PC-3, approximately 20 hours, Wst1, read-out: PC-3, percent of cancer cell survival relative to vehicle treated cells
Summary of the method: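 PC-3 cells, 2×10^4 cells/well, exposed ~20 h to vehicle or compound at 0.4, 0.5 or 2.5 μM as specified per compound. Wst1 dye added for 2 h; absorbance 450 nm (reference 630 nm), triplicates. Values are percent cell survival versus vehicle-treated cells.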

[2] = tested on: PC-3 prostate cancer cells; assay: Example T: sensitisation of PC-3 cells to doxorubicin, oxaliplatin, paclitaxel or vincristine, Wst1; format: cell-based, human; conditions: PC-3 cells, 72 hours; for viability at 2.5 µM / viability at 0.4 µM / viability at 1.5 µM / viability at 0.5 µM: Homo sapiens, Wst1, vehicle = 100, read-out: No Chemo: percent cell survival; for viability at 2.5 µM: compound 2.5 μM alone; for Doxorubicin 3.5 μM: percent cell survival / Oxaliplatin 100 μM: percent cell survival / Paclitaxel 50 μM: percent cell survival / Vincristine 100 nM: percent cell survival: chemotherapy agent alone normalized to 100%; for viability at 0.4 µM: compound 0.4 μM alone; for viability at 1.5 µM: compound 1.5 μM alone; for viability at 0.5 µM: compound 0.5 μM alone
[3] = tested on: Candida albicans strain 3153; assay: Example H: Candida albicans growth inhibition (OD 600 nm); format: cell-based; conditions: Candida albicans, 3153, read-out: IC50 (uM) (50% inhibition of fungal growth), 24 hrs at 30° C., YPD, XLfit
Procedure: A single colony of Candida Albicans was grown in 50 ml YPD broth overnight (19 hr). The cells were washed with PBS and 3.5×10^4 CFU/ml of C. Albicans (144 μl/well) in YPD medium were plated in 96 well plates. Test compounds were then added to each well with concentration ranged from 5 to 40 μM as final concentrations. The plates were incubated at 30° C. overnight (24 hrs) and OD at 600 nm was read at the end of incubation as an index of yeast cell density.
Part-I: Preparation of Candida albicans Cells • 1. One day prior to the inoculum preparation, pick a single colony of Candida albicans strain 3153 (lot #61794) from the Sabouraud Dextrose Agar plate using the inoculum loop and inoculate into a 250 mL flask containing 50 ml of YPD growth medium • 2. Incubate at 30° C. with shaking at 150 rpm for at least 18 hours with loosened lid to allow air in and facilitate growth. • 3. Examine an aliquot of the culture under a microscope for Candida cell morphology and lack of bacterial contamination; >95% of Candida cells should be blastoconidia. • 4. Transfer 25 ml the overnight culture into a 50-ml plastic disposable centrifuge tube, and centrifuge at 1000×g for 20 min. • 5. Discard the supernatant and wash the pellet with 4 ml of PBS at three times. Vortex and centrifuge, 1000×g for 10 min. • 6. After the third wash, dispense the pellet with 2 ml PBS and vortex. • 7. Make three 1:10 serial dilutions in sterile PBS (10^−1, 10^−2, 10^−3) from the 2 ml cell suspension using 15 ml culture tubes. The final volume in each tube is 5 ml. • 8. […] Make a 1:4 dilution in YPD medium from the 50-fold dilution of 10^−3 cell suspension for testing compounds. • The final C. albicans cell concentration for the test: 3.5×10^4 CFU/ml • 10. Plated 144 ul/well of the above dilution of cell on 96-well plates. Part-II: C. Albicans Growth Inhibition Testing with Compounds • 1. From 10 mM DMSO stock solutions, make serial dilutions of compounds to 0.13, 0.25, 0.40, 0.55, 0.75 and 1.0 mM solutions • 2. Add 6 ul each of diluted compound solutions per well in duplicates. The final concentrations were 0, 5, 10, 16, 22, 30 and 40 micromolar. • 3. Incubated all plates at 30 C for overnight (˜24 hours). • 4. Read absorbance at OD600 for each plate. • 5. Calculate the % inhibition of each compound against the DMSO treated cell.

THP-1 cells = assay: Example D: LPS-triggered THP-1 cell death assay, acute/5-hour and chronic/48-hour; format: cell-based, Human; conditions: for Viable cell percent change, Chronic/48-hour, Mean: 10 ng/ml LPS, 0.1 μM test compound
Procedure: Compounds of the invention were tested at 0.1 μM versus AC in the LPS-triggered THP-1 cell death assay. Both acute/5-hour and chronic/48-hour phases of cell death were assessed. Compounds were screened in batches with DMSO as the negative control and AC as the high activity control.

[4] = tested on: 4T1 murine breast cancer cells; assay: Example S: in vitro anticancer screen, 4T1 cells, Wst1; format: cell-based, mouse; conditions: Mus musculus, 4T1, 18 h, 18 hr, Wst1; for viability at 1 µM: read-out: 4T1 1 μM, percent of cancer cell survival relative to vehicle treated cells; for viability at 5 µM: read-out: 4T1 5 μM, percent of cancer cell survival relative to vehicle treated cells
Summary of the method: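 4T1 cells seeded at 1×10^4/well were exposed to compound at 1 μM or 5 μM for 18 hr after plating. Wst1 tetrazolium dye was then added for about 2 hr and absorbance read at 450 nm (reference 630 nm). Values are percent survival relative to vehicle-treated cells.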

[5] = compound 2.5 μM + doxorubicin 3.5 μM
[6] = compound 2.5 μM + oxaliplatin 100 μM
[7] = compound 2.5 μM + paclitaxel 50 μM
[8] = compound 2.5 μM + vincristine 100 nM
[9] = compound 0.4 μM + doxorubicin 3.5 μM
[10] = compound 0.4 μM + oxaliplatin 100 μM
[11] = compound 0.4 μM + paclitaxel 50 μM
[12] = compound 0.4 μM + vincristine 100 nM
[13] = compound 1.5 μM + doxorubicin 3.5 μM
[14] = compound 1.5 μM + oxaliplatin 100 μM
[15] = compound 1.5 μM + paclitaxel 50 μM
[16] = compound 1.5 μM + vincristine 100 nM
[17] = compound 0.5 μM + doxorubicin 3.5 μM
[18] = compound 0.5 μM + oxaliplatin 100 μM
[19] = compound 0.5 μM + paclitaxel 50 μM
[20] = compound 0.5 μM + vincristine 100 nM

In the case of `CCCCOCCCCCCCCn1cnc2cnc3ccccc3c21` [BQ, 1-(8-Butoxyoctyl)-1H-imidazo[4,5-c]quinoline], the viability at 2.5 µM [1] was 21.4%, the viability at 2.5 µM [2] was 21.4% and the “Doxorubicin 3.5 μM: percent cell survival” value [2, 5] was 48.5%. For the same molecule, the “Oxaliplatin 100 μM: percent cell survival” value [2, 6] was 25.1%, the “Paclitaxel 50 μM: percent cell survival” value [2, 7] was 26.9% and the “Vincristine 100 nM: percent cell survival” value [2, 8] was 21.4%. For the same molecule, the IC50 [3] was 51.7 µM and the “Viable cell percent change, Chronic/48-hour, Mean” value (shortened to “Viable cell percent change”) (THP-1 cells) was 13.70%.

With `CCCCCCOCCCCCCCCNc1ncnc2ccccc12` [EW, N-[8-(Hexyloxy)octyl]quinazolin-4-amine] the viability at 0.4 µM [1] was 14.1%, the viability at 0.4 µM [2] was 14.1% and the “Doxorubicin 3.5 μM: percent cell survival” value [2, 9] was 20%. For the same molecule, the “Oxaliplatin 100 μM: percent cell survival” value [2, 10] was 16.6%, the “Paclitaxel 50 μM: percent cell survival” value [2, 11] was 21.9% and the “Vincristine 100 nM: percent cell survival” value [2, 12] was 14.8%. For the same molecule, the “activity relative to AC in the LPS-triggered THP-1 cell death assay, in words” value (THP-1 cells; 0.1 μM, 5-hour and 48-hour time points) was “equivalent activity to AC at both the 5-hour and 48-hour time points”, the viability at 1 µM [4] was 21.2% and the viability at 5 µM [4] was 18.9%.

With `CCCCCCCCCCCCOCCn1cnc2cnc3ccccc3c21` [FG, 1-[2-(Dodecyloxy)ethyl]-1H-imidazo[4,5-c]quinoline] the viability at 1.5 µM [1] was 39.2%, the viability at 1.5 µM [2] was 39.2% and the “Doxorubicin 3.5 μM: percent cell survival” value [2, 13] was 65.7%. For the same molecule, the “Oxaliplatin 100 μM: percent cell survival” value [2, 14] was 85.5%, the “Paclitaxel 50 μM: percent cell survival” value [2, 15] was 47.2% and the “Vincristine 100 nM: percent cell survival” value [2, 16] was 41%. For the same molecule, the “Viable cell percent change” value (THP-1 cells) was 1.15%, the viability at 1 µM [4] was 85.7% and the viability at 5 µM [4] was 25.5%.

In the case of `CCCCCCCCOCCCCCCn1cnc2cnc3ccccc3c21` [FI, 1-[6-(Octyloxy)hexyl]-1H-imidazo[4,5-c]quinoline], the viability at 0.5 µM [1] was 35.2%, the viability at 0.5 µM [2] was 35.2% and the “Doxorubicin 3.5 μM: percent cell survival” value [2, 17] was 79.8%. The “Oxaliplatin 100 μM: percent cell survival” value [2, 18] was 91.4%, the “Paclitaxel 50 μM: percent cell survival” value [2, 19] was 84% and the “Vincristine 100 nM: percent cell survival” value [2, 20] was 73.7%. For the same molecule, the “Viable cell percent change” value (THP-1 cells) was 12.70%, the viability at 1 µM [4] was 26.5% and the viability at 5 µM [4] was 26.7%.

In the case of `CCCCCCOCCCCCCCCCn1cnc2cnc3ccccc3c21` [FJ, 1-[9-(Hexyloxy)nonyl]-1H-imidazo[4,5-c]quinoline], the viability at 0.5 µM [1] was 38.6%, the viability at 0.5 µM [2] was 38.6% and the “Doxorubicin 3.5 μM: percent cell survival” value [2, 17] was 75.1%. For the same molecule, the “Oxaliplatin 100 μM: percent cell survival” value [2, 18] was 93%, the “Paclitaxel 50 μM: percent cell survival” value [2, 19] was 97.3% and the “Vincristine 100 nM: percent cell survival” value [2, 20] was 82.2%. For the same molecule, the “Viable cell percent change” value (THP-1 cells) was 27.44%, the viability at 1 µM [4] was 38.1% and the viability at 5 µM [4] was 24.5%.

In the case of `CCCCOCCCCCCCCCCn1cnc2cnc3ccccc3c21` [FK, 1-(10-Butoxydecyl)-1H-imidazo[4,5-c]quinoline], the viability at 0.5 µM [1] was 35.5%, the viability at 0.5 µM [2] was 35.5% and the “Doxorubicin 3.5 μM: percent cell survival” value [2, 17] was 47.4%. For the same molecule, the “Oxaliplatin 100 μM: percent cell survival” value [2, 18] was 62%, the “Paclitaxel 50 μM: percent cell survival” value [2, 19] was 18% and the “Vincristine 100 nM: percent cell survival” value [2, 20] was 39%. For the same molecule, the “Viable cell percent change” value (THP-1 cells) was 16.57%, the viability at 1 µM [4] was 23.6% and the viability at 5 µM [4] was 15.6%.

In the case of `COCCCCCCCCNc1cc[n+](C)cc1.[I-]` [FL, 4-(8-Methoxyoctylamino)-1-methylpyridinium iodide], the viability at 0.4 µM [1] was 41.2%, the viability at 0.4 µM [2] was 41.2% and the “Doxorubicin 3.5 μM: percent cell survival” value [2, 9] was 81.3%. The “Oxaliplatin 100 μM: percent cell survival” value [2, 10] was 87.9%, the “Paclitaxel 50 μM: percent cell survival” value [2, 11] was 92.8% and the “Vincristine 100 nM: percent cell survival” value [2, 12] was 69.7%. For the same molecule, the “Viable cell percent change” value (THP-1 cells) was 38.59%, the viability at 1 µM [4] was 27.7% and the viability at 5 µM [4] was 21.4%.

For `CCCCCCOCCCCCCCCNc1cccc2cnccc12` [FT, N-[8-(Hexyloxy)octyl]isoquinolin-5-amine], the viability at 2.5 µM [1] was 41.1%, the viability at 2.5 µM [2] was 41.1% and the “Doxorubicin 3.5 μM: percent cell survival” value [2, 5] was 74.4%. For the same molecule, the “Oxaliplatin 100 μM: percent cell survival” value [2, 6] was 94.2%, the “Paclitaxel 50 μM: percent cell survival” value [2, 7] was 85.2% and the “Vincristine 100 nM: percent cell survival” value [2, 8] was 78.3%. The “Viable cell percent change” value (THP-1 cells) was 3.59%, the viability at 1 µM [4] was 113% and the viability at 5 µM [4] was 27.6%.

`CCCCCCCCCCOCCCCn1cnc2cnc3ccccc3c21` [GA, 1-[4-(Decyloxy)butyl]-1H-imidazo[4,5-c]quinoline] was tested, and the viability at 1.5 µM [1] was 41.3%, the viability at 1.5 µM [2] was 41.3% and the “Doxorubicin 3.5 μM: percent cell survival” value [2, 13] was 82.2%. For the same molecule, the “Oxaliplatin 100 μM: percent cell survival” value [2, 14] was 91.8%, the “Paclitaxel 50 μM: percent cell survival” value [2, 15] was 109.2% and the “Vincristine 100 nM: percent cell survival” value [2, 16] was 84.2%. For the same molecule, the “Viable cell percent change” value (THP-1 cells) was 16.51%, the viability at 1 µM [4] was 97.1% and the viability at 5 µM [4] was 35.5%.

For `CCCCCCOCCCCCCCCn1cnc2cnc3ccccc3c21` [GB, 1-[8-(Hexyloxy)octyl]-1H-imidazo[4,5-c]quinoline], the viability at 1.5 µM [1] was 36.4%, the viability at 1.5 µM [2] was 36.4% and the “Doxorubicin 3.5 μM: percent cell survival” value [2, 13] was 52.8%. The “Oxaliplatin 100 μM: percent cell survival” value [2, 14] was 76.2%, the “Paclitaxel 50 μM: percent cell survival” value [2, 15] was 24% and the “Vincristine 100 nM: percent cell survival” value [2, 16] was 38.8%. For the same molecule, the “Viable cell percent change” value (THP-1 cells) was 19.29%, the viability at 1 µM [4] was 97% and the viability at 5 µM [4] was 22.6%.

In the case of `CCCCCCOCCCOCCCCCn1cnc2cnc3ccccc3c21` [GC, 1-{5-[3-(Hexyloxy)propoxy]pentyl}-1H-imidazo[4,5-c]quinoline], the viability at 2.5 µM [1] was 19.8%, the viability at 2.5 µM [2] was 19.8% and the “Doxorubicin 3.5 μM: percent cell survival” value [2, 5] was 59.5%. The “Oxaliplatin 100 μM: percent cell survival” value [2, 6] was 63.2%, the “Paclitaxel 50 μM: percent cell survival” value [2, 7] was 30.3% and the “Vincristine 100 nM: percent cell survival” value [2, 8] was 26.4%. For the same molecule, the “Viable cell percent change” value (THP-1 cells) was 19.30%, the viability at 1 µM [4] was 84.8% and the viability at 5 µM [4] was 21.1%.
